Drawing on patent publication US10899759B2, “Positive allosteric modulators of the muscarinic acetylcholine receptor M1” (Vanderbilt University, priority 2016, dated 2021), this text covers Emax and EC50 for 23 compounds.

The test addresses T1, human mAChR M1 (Homo sapiens, UniProt P11229).
T1 construct: host or cells: CHO-K1
T1 sequence (P11229 1-460): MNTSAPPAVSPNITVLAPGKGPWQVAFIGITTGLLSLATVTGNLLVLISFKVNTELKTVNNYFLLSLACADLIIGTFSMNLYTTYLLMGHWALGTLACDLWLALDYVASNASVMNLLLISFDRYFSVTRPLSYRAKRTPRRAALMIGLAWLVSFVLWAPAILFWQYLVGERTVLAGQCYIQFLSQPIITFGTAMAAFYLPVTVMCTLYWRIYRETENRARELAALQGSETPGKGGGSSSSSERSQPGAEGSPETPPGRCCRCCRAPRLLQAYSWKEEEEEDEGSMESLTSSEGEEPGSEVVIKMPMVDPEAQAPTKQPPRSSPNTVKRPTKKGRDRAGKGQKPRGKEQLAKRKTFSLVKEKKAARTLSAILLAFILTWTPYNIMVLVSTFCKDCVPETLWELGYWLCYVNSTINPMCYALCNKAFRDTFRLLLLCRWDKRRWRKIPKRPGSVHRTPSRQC
As to the kind of experiment: mAChR M1 cell-based functional assay (calcium mobilization, Fluo-4, FDSS). To be noted: CHO-K1 cells stably expressing hM1; for Emax: EC20 acetylcholine response, read-out: Human M1 Emax; for pEC50: positive allosteric modulator activity as increase in the EC20 acetylcholine response. An outline of the steps: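 CHO-K1 cells stably expressing muscarinic receptor, loaded with Fluo-4; 11-point 1:3 compound series added and calcium flux read over 300 s at 1 Hz. Agonism from direct calcium rise, PAM activity as potentiation of EC20 acetylcholine, antagonism as decrease of EC80 acetylcholine; four-parameter logistic fits.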

pEC50: −log10 of the molar value.

On to `Cc1nc(-c2ccc(Cc3cc(C(=O)NC4CCOCC4(C)C)nc4sccc34)cc2)co1` (stereo not shown) [Compound 133, N-(3,3-dimethyltetrahydropyran-4-yl)-4-[[4-(2-methyloxazol-4-yl)phenyl]methyl]thieno[2,3-b]pyridine-6-carboxamide], for which the Emax (in general, the greatest response seen or fitted, relative to the assay's reference) came to 62.3% and the pEC50 (usually −log10 of the EC50, conventionally taken in molar units) is 5.63.
Consider `Cc1nc(-c2ccc(Cc3cc(C(=O)NC4CCOCC4C)nc4sccc34)cc2)co1` (stereo not shown) [Compound 134, 4-[[4-(2-methyloxazol-4-yl)phenyl]methyl]-N-(3-methyltetrahydropyran-4-yl)thieno[2,3-b]pyridine-6-carboxamide], for which the Emax came to 51.4% and the pEC50 is 5.91.
On to `Cc1nc(-c2ccc(Cc3cc(C(=O)NCC4CCOCC4)nc4sccc34)cc2)co1` [Compound 135], for which the Emax is 57.7% and the pEC50 is 6.27.
With `Cc1nc(-c2ccc(Cc3cc(C(=O)N[C@H]4CCOC4)nc4sccc34)cc2)co1` [Compound 136, 4-[[4-(2-methyloxazol-4-yl)phenyl]methyl]-N-[(3S)-tetrahydrofuran-3-yl]thieno[2,3-b]pyridine-6-carboxamide], the Emax came out at 60.6% and the pEC50 is 6.21.
As for `Cc1nc(-c2ccc(Cc3cc(C(=O)N[C@@H]4CCOC4)nc4sccc34)cc2)co1` [Compound 137, 4-[[4-(2-methyloxazol-4-yl)phenyl]methyl]-N-[(3R)-tetrahydrofuran-3-yl]thieno[2,3-b]pyridine-6-carboxamide], the Emax was found to be 59.5% and the pEC50 is 5.72.
Taken in the same sequence, the figures for `Cc1nc(-c2ccc(Cc3cc(C(=O)NCC4CCOC4)nc4sccc34)cc2)co1` (stereo not shown) [Compound 138, 4-[[4-(2-methyloxazol-4-yl)phenyl]methyl]-N-(tetrahydrofuran-3-ylmethyl)thieno[2,3-b]pyridine-6-carboxamide] were 59.5% and 5.50.
Taken in the same sequence, the figures for `Cc1nc(-c2ccc(Cc3cc(C(=O)NC4CC5(COC5)C4)nc4sccc34)cc2)co1` [Compound 139, 4-[[4-(2-methyloxazol-4-yl)phenyl]methyl]-N-(2-oxaspiro[3.3]heptan-6-yl)thieno[2,3-b]pyridine-6-carboxamide] were 60.5% and 6.41.
Regarding `Cc1nc(-c2ccc(Cc3cc(C(=O)NC4(C)COC4)nc4sccc34)cc2)co1` [Compound 140, 4-[[4-(2-methyloxazol-4-yl)phenyl]methyl]-N-(3-methyloxetan-3-yl)thieno[2,3-b]pyridine-6-carboxamide], the Emax was determined as 59.2% and the pEC50 is 6.62.
In the case of `Cc1nc(-c2ccc(Cc3cc(C(=O)NC4CC(F)C4)nc4sccc34)cc2)co1` (stereo not shown) [Compound 141], the Emax was 35.9% and the pEC50 was under 5.00.
Regarding `Cc1nc(-c2ccc(Cc3cc(C(=O)NCC4CCN4)nc4sccc34)cc2)co1` (stereo not shown) [Compound 142, N-(azetidin-2-ylmethyl)-4-[[4-(2-methyloxazol-4-yl)phenyl]methyl]thieno[2,3-b]pyridine-6-carboxamide], the Emax amounted to 60.1% and the negative logarithm of the EC50 (pEC50) is 5.63.
Taken in the same sequence, the figures for `COCCNC(=O)c1cc(Cc2ccc(-c3coc(C)n3)cc2)c2ccsc2n1` [Compound 143, N-(2-methoxyethyl)-4-[[4-(2-methyloxazol-4-yl)phenyl]methyl]thieno[2,3-b]pyridine-6-carboxamide] were 60.8% and 6.55.
As for `COCC(C)NC(=O)c1cc(Cc2ccc(-c3coc(C)n3)cc2)c2ccsc2n1` (stereo not shown) [Compound 144, N-(2-methoxy-1-methyl-ethyl)-4-[[4-(2-methyloxazol-4-yl)phenyl]methyl]thieno[2,3-b]pyridine-6-carboxamide], the Emax stood at 64.2% and the pEC50 was 6.02.
For `Cn1ccc(-c2ccc(Cc3cc(C(=O)NC4CCOCC4)nc4c3ccn4C)cn2)n1` [Compound 145, 1-methyl-4-[[6-(1-methylpyrazol-3-yl)-3-pyridyl]methyl]-N-tetrahydropyran-4-yl-pyrrolo[2,3-b]pyridine-6-carboxamide], in that order: 77.6% and 6.33.
For `Cn1ccc(-c2ccc(Cc3cc(C(=O)NC4CCOC(C)(C)C4)nc4c3ccn4C)cn2)n1` (stereo not shown) [Compound 146, N-(2,2-dimethyltetrahydropyran-4-yl)-1-methyl-4-[[6-(1-methylpyrazol-3-yl)-3-pyridyl]methyl]pyrrolo[2,3-b]pyridine-6-carboxamide], the Emax is 79.3% and the pEC50 was 6.28.
Taken in the same sequence, the figures for `Cn1ccc(-c2ccc(Cc3cc(C(=O)NC4CCOCC4(C)C)nc4c3ccn4C)cn2)n1` (stereo not shown) [Compound 147] were 81.6% and 6.72.
Taken in the same sequence, the figures for `CC1CC(NC(=O)c2cc(Cc3ccc(-c4ccn(C)n4)nc3)c3ccn(C)c3n2)CC(C)O1` (stereo not shown) [Compound 148, N-(2,6-dimethyltetrahydropyran-4-yl)-1-methyl-4-[[6-(1-methylpyrazol-3-yl)-3-pyridyl]methyl]pyrrolo[2,3-b]pyridine-6-carboxamide] were 82.4% and 6.03.
Taken in the same sequence, the figures for `Cn1ccc(-c2ccc(Cc3cc(C(=O)NC4CC5(COC5)C4)nc4c3ccn4C)cn2)n1` [Compound 149, 1-methyl-4-[[6-(1-methylpyrazol-3-yl)-3-pyridyl]methyl]-N-(2-oxaspiro[3.3]heptan-6-yl)pyrrolo[2,3-b]pyridine-6-carboxamide] were 78.1% and 6.43.
For `Cn1ccc(-c2ccc(Cc3cc(C(=O)NCC4CCOCC4)nc4c3ccn4C)cn2)n1` [Compound 150], the Emax was determined as 77.7% and the pEC50 was 6.09.
For `Cn1ccc(-c2ccc(Cc3cc(C(=O)NCC4CCOC4)nc4c3ccn4C)cn2)n1` (stereo not shown) [Compound 151, 1-methyl-4-[[6-(1-methylpyrazol-3-yl)-3-pyridyl]methyl]-N-(tetrahydrofuran-3-ylmethyl)pyrrolo[2,3-b]pyridine-6-carboxamide], in that order: 76.4% and 5.92.
Take `Cn1ccc(-c2ccc(Cc3cc(C(=O)NC4(C)COC4)nc4c3ccn4C)cn2)n1` [Compound 152, 1-methyl-N-(3-methyloxetan-3-yl)-4-[[6-(1-methylpyrazol-3-yl)-3-pyridyl]methyl]pyrrolo[2,3-b]pyridine-6-carboxamide]: the Emax was determined as 45.5% and the pEC50 was under 5.00.
For `Cn1ccc(-c2ccc(Cc3cc(C(=O)N[C@H]4CCC[C@@H]4O)nc4c3ccn4C)cn2)n1` [Compound 153, N-[(1S,2S)-2-hydroxycyclopentyl]-1-methyl-4-[[6-(1-methylpyrazol-3-yl)-3-pyridyl]methyl]pyrrolo[2,3-b]pyridine-6-carboxamide], in that order: 75.1% and 6.72.
For `Cn1ccc(-c2ccc(Cc3cc(C(=O)NC4CC(F)(F)C4)nc4c3ccn4C)cn2)n1` [Compound 154, N-(3,3-difluorocyclobutyl)-1-methyl-4-[[6-(1-methylpyrazol-3-yl)-3-pyridyl]methyl]pyrrolo[2,3-b]pyridine-6-carboxamide], in that order: 66.1% and 5.60.
For `Cn1ccc(-c2ccc(Cc3cc(C(=O)N[C@H]4CCCC[C@@H]4O)nc4c3ccn4C)cn2)n1` [Compound 155, N-[(1S,2S)-2-hydroxycyclohexyl]-1-methyl-4-[[6-(1-methylpyrazol-3-yl)-3-pyridyl]methyl]pyrrolo[2,3-b]pyridine-6-carboxamide], in that order: 65.7% and 6.96.
